Measured values taken from US12662491B2 (Redona Therapeutics, Inc., priority 2020, dated 2026).

Biological target: T1, Zcchc11 enzyme (Homo sapiens, UniProt Q5TAX3)
T1 construct: made in house; host or cells: HEK293 cells (Zcchc11); E. coli Rosetta II (LIN28A)
T1 sequence (Q5TAX3 212-1420): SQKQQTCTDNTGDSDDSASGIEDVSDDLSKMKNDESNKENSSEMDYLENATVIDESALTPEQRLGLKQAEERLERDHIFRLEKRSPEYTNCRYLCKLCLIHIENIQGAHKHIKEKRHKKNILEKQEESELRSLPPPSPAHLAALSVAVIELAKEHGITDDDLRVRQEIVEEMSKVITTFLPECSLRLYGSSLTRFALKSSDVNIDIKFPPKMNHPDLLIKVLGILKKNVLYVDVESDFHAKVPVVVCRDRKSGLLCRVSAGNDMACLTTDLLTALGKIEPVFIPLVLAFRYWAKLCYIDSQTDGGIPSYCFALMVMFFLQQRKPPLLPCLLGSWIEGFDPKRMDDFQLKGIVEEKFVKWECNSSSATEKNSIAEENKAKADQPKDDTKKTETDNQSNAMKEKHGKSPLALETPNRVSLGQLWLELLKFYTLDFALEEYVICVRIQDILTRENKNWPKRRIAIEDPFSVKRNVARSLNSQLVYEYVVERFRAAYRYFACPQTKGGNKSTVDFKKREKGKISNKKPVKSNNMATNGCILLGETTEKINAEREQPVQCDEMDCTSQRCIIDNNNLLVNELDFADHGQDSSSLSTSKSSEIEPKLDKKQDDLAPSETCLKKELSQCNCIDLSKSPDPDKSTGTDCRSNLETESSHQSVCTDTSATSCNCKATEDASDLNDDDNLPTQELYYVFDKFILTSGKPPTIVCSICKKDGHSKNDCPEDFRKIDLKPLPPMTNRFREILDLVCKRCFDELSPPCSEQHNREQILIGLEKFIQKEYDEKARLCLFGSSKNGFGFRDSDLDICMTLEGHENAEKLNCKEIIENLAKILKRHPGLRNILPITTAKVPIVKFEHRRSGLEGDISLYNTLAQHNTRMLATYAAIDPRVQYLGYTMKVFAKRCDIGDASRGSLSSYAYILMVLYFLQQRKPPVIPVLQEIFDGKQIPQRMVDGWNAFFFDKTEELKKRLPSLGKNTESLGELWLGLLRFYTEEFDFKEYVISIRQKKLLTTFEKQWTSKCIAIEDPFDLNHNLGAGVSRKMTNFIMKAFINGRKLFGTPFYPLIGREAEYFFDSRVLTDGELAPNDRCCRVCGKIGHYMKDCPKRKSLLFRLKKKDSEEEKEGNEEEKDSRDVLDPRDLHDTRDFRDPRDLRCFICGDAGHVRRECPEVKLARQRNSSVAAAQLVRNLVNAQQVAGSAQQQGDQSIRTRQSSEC
Assay: TUTase assay (Zcchc11 assay, Lin28a-dependent polyuridylation of pre-let-7)
Type: biochemical
Conditions: LIN28A 10 nM, Zcchc11 0.2 nM, 5′-fluorescein pre-let-7 miRNA 2 nM, UTP 5 uM, room temperature, 30 minutes pre-incubation; read-out: Potency Lin28a-dep Z11 IC50
Protocol: The purpose of the Zcchc11 assay is to determine compound potency against Zcchc11 enzyme through the measurement of IC50. Compound inhibition is measured as a function of polyuridine tails added to RNA substrates in the presence of active TUTase, UTP, and inhibitor. The Zcchc11 assay was done in a black, non-binding, 384 well plate (Corning #3575). All steps were performed at room temperature. For a typical assay, a 29 ul aliquot of assay buffer (50 mM HEPES pH 7.3, 150 mM KCl, 5 mM MgCl2, 10 mM DTT, 0.01% Triton X-100, 40 U/ml RNAsin (Promega)) containing LIN28A protein (final concentration: 10 nM) is added to each well. Next, 1 ul of compound in 100% DMSO is transferred from a compound dilution plate in which the compound is serially diluted. Next, 10 ul of a 5× mix of Zcchc11 and RNA substrate (5′-fluorescein labeled pre-let-7 miRNA (Dharmacon)) is added (final concentrations: 0.2 nM and 2 nM, respectively). The plate is placed on a plate shaker for 30 seconds to produce mixing, then incubated for 30 minutes. Next, 10 ul of a 5× mix of UTP and the quenching probe (3′-rhodamine labeled A20, polyadenosine nucleotide, (IDT)) is added (final concentrations: 5 uM and 4 nM, respectively). The plate is immediately placed in a Biotek Cytation 5 plate reader, and the time-dependent decrease in fluorescein fluorescence resulting from annealing of the A20 probe to polyuridine tails is recorded, using the kinetics mode of the reader. Reaction rates are obtained using linear fits to the early portion of progress curves. IC50 values are calculated using a four parameter fit with 100% enzyme activity determined from the DMSO control and 0% activity from control samples lacking UTP.
The LIN28A protein was expressed in and purified from E. coli, strain Rosetta II (Novagen). The entire coding sequence of the human, wild-type protein was cloned into expression vector pMAL (NEB), down-stream from a maltose-binding protein tag. The linker sequence contained a TEV protease cleavage site. The protein was purified from bacterial extracts using an MBP-Trap column (GE Healthcare Life Sciences), followed by tag cleavage and removal of the tag by ion-exchange chromatography. When necessary, contaminating bacterial RNA was removed using the procedure describe by Faehnle C R. et al. (2017) Multi-domain utilization by TUT4 and TUT7 in control of let-7 biogenesis. Nat Struct Mol Biol, 24:658-665.
The Zcchc11 protein was expressed in and purified from HEK293 cells. A truncated protein comprising residues 212-1420 of the human sequence was cloned into expression vector pTT5 (Viva Biotech) down-stream from a maltose-binding protein tag. The linker sequence contained a TEV protease cleavage site, and a FLAG tag was added to the carboxyl terminus of the protein. The protein was purified from cell extracts using an MBP-Trap column (GE Healthcare Life Sciences), followed by tag cleavage and further enrichment of the full length construct using anti-FLAG affinity media (Sigma Aldrich).
“+” represents an IC50 value that is greater than 50 μM; “++” represents an IC50 value that is greater than 10 μM and equal to or less than 50 μM; “+++” represents an IC50 value that is greater than 1 μM and equal to or less than 10 μM; and “++++” represents an IC50 value that is equal to or less than 1 μM.

IC50 [nM] | SMILES
1000 to 10000 | O=C(O)c1cn(-c2ncccn2)c2cc(N3CCC[C@@H]3COc3ccccn3)c(Cl)cc2c1=O [Example 2, (R)-6-chloro-4-oxo-7-(2-((pyridin-2-yloxy)methyl)pyrrolidin-1-yl)-1-(pyrimidin-2-yl)-1,4-dihydroquinoline-3-carboxylic acid]
1000 to 10000 | O=C(O)c1cn(C2CC2)c2c(F)c(N3CCC[C@@H]3COc3cccnn3)c(F)cc2c1=O [Example 29, (R)-1-cyclopropyl-6,8-difluoro-4-oxo-7-(2-((pyridazin-3-yloxy)methyl)pyrrolidin-1-yl)-1,4-dihydroquinoline-3-carboxylic acid]

Same assay, conditions: Lin28a-dependent Zcchc11 (Z11) TUTase activity; read-out: Potency Lin28a-dep Z11 IC50

IC50 [nM] | SMILES
≤ 1000 | O=C(O)c1cn(-c2cnc3c(n2)COC3)c2cc(N3CCC[C@@H]3COc3ncccc3Cl)c(Cl)cc2c1=O (racemic) [Compound 182, rac-(R)-6-chloro-7-(2-(((3-chloropyridin-2-yl)oxy)methyl)pyrrolidin-1-yl)-1-(5,7-dihydrofuro [3,4-b]pyrazin-2-yl)-4-oxo-1,4-dihydro-quinoline-3-carboxylic acid]
≤ 1000 | COc1ccc(Cl)c(OCC2N(c3cc4c(cc3Cl)c(=O)c(C(=O)O)cn4-c3cnnc(N)c3)CCC2(C)C)n1 (centres unmarked) [Compound 228, 1-(6-Amino-pyridazin-4-yl)-6-chloro-7-(2-(((3-chloro-6-methoxy-pyridin-2-yl)oxy)methyl)-3,3-dimethyl-pyrrolidin-1-yl)-4-oxo-1,4-dihydro-quinoline-3-carboxylic acid]
≤ 1000 | CN(C)C1CN(c2ccc(-n3cc(C(=O)O)c(=O)c4cc(Cl)c(N5CCC[C@@H]5COc5nc6ccn(C)c6cc5Cl)cc43)cn2)C1 [Compound 256, 6-chloro-7-[(2R)-2-[([6-chloro-1-methyl-pyrrolo [3,2-b]pyridin-5-yl]oxy)methyl]pyrrolidin-1-yl]-1-[6-[3-(dimethyl-amino)azetidin-1-yl]pyridin-3-yl]-4-oxoquinoline-3-carboxylic acid]
≤ 1000 | COc1ccc(Cl)c(OCC2C3CC(C3)N2c2cc3c(cc2Cl)c(=O)c(C(=O)O)cn3-c2ccc(N3CC(N(C)C)C3)nc2)n1 (centres unmarked) [Compound 202, 6-chloro-7-(3-(((3-chloro-6-methoxy-pyridin-2-yl)oxy)methyl)-2-azabicyclo [2.1.1]hexan-2-yl)-1-(6-(3-(dimethyl-amino)azetidin-1-yl)pyridin-3-yl)-4-oxo-1,4-dihydro-quinoline-3-carboxylic acid]
≤ 1000 | CN(C)C1CN(c2ccc(-n3cc(C(=O)O)c(=O)c4cc(Cl)c(N5CCC[C@]5(C)COc5ncccc5Cl)nc43)cn2)C1 [Compound 185]

Same assay, conditions: Lin28a-dependent Zcchc11 (Z11) TUTase assay; read-out: Potency Lin28a-dep Z11 IC50

IC50 [nM] | SMILES
1000 to 10000 | O=C(O)c1cn(-c2cnc(O)cn2)c2cc(N3CCC[C@@H]3COc3ccccn3)c(F)cc2c1=O [Example 354, (R)-6-fluoro-1-(5-hydroxypyrazin-2-yl)-4-oxo-7-(2-((pyridin-2-yloxy)methyl)pyrrolidin-1-yl)-1,4-dihydroquinoline-3-carboxylic acid]
≤ 1000 | O=C(O)c1cn(-c2ccc(O)c(Cl)c2)c2cc(N3CCC[C@@H]3COc3ccccn3)c(F)cc2c1=O [Example 408, (R)-1-(3-chloro-4-hydroxyphenyl)-6-fluoro-4-oxo-7-(2-((pyridin-2-yloxy)methyl)pyrrolidin-1-yl)-1,4-dihydroquinoline-3-carboxylic acid]
≤ 1000 | CCc1cc2c(=O)c(C(=O)O)cn(-c3cnccn3)c2cc1N1CCC[C@@H]1COc1ncccc1Cl [Example 551, (R)-7-(2-(((3-chloropyridin-2-yl)oxy)methyl)pyrrolidin-1-yl)-6-ethyl-4-oxo-1-(pyrazin-2-yl)-1,4-dihydroquinoline-3-carboxylic acid]
≤ 1000 | O=C(O)c1cn(-c2cc3nc[nH]c3cn2)c2cc(N3CCC[C@@H]3COc3ncccc3Cl)c(Cl)cc2c1=O [Example 604, (R)-6-chloro-7-(2-(((3-chloropyridin-2-yl)oxy)methyl)pyrrolidin-1-yl)-1-(3H-imidazo[4,5-c]pyridin-6-yl)-4-oxo-1,4-dihydroquinoline-3-carboxylic acid]
